Measured values published in article PMC12670405, “Second-Generation AURKA-Targeting PROTACs: Structural Optimization toward in Vivo Degradation in Neuroblastoma” (Journal of Medicinal Chemistry, 2025).

What was measured:
AURKA [1] = molecular target: T1, AURKA (Homo sapiens, UniProt O14965); assay: AURKA protein levels, Western blot in SH-SY5Y with ABCB1 knockdown; format: cell-based; set-up: endogenous in cells; details: 1 μM, 24h
T1 sequence (O14965 1-403): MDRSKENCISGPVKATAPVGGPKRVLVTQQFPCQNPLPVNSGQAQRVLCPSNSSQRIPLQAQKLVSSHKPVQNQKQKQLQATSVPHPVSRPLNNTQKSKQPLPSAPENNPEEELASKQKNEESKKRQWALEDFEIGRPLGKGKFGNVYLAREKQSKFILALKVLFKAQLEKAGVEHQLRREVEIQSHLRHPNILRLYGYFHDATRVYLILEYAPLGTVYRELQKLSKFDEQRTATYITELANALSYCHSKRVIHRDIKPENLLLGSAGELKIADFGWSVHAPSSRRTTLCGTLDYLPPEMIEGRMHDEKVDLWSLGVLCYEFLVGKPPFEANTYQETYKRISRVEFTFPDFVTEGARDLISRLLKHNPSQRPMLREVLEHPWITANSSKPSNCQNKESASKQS

ZNF337 = assay: LC-MS/MS proteome profiling; format: cell-based, Homo sapiens; details: SK5527 vs DMSO (24h)
Experimental: (§1) Analysis of the mass spectrometry data was performed in DiaNN (version 1.9). Precursor false discovery rate was set at 1%. Spectra were searched against the Homo sapiens protein sequences in the Uniprot database (database release version of 2024_01), containing 20,597 sequences (www.uniprot.org) and the imbedded protein contaminant list. Enzyme specificity was set as C-terminal to arginine and lysine, also allowing cleavage at proline bonds with a maximum of 2 missed cleavages. Variable modifications were set to oxidation of methionine residues and acetylation of protein N-termini while fixed modification was set to carbamidomethylation of cystein residues. Matching between runs was enabled. Mainly default settings were used, except for the addition of a 400-900 m/z precursor mass range filter and MS1 and MS2 mass tolerance was set to 10 and 20 ppm respectively.
(§2) Further data analysis of the results was performed with an in-house script in the R programming language.
(§3) Protein expression matrices were prepared as follows: the DIA-NN main report output table was filtered at a precursor and protein library q-value cut-off of 1 % and only proteins identified by at least one proteotypic peptide were retained. After pivoting into a wide format, iBAQ intensity columns were then added to the matrix using the DIAgui’s R package get_IBAQ function. PG MaxLFQ intensities were log2 transformed and replicate samples were grouped. Proteins with less than 3 valid values in at least one group were removed and missing values were imputed from a normal distribution centered around the detection limit (package DEP) leading to a list of 7,759 quantified proteins in the experiment, used for further data analysis. To compare protein abundance […]
(§4) 24h MK-5108 vs 24h DMSO sample groups), statistical testing for differences between two group means was performed, using the package limma. Statistical significance for differential regulation was set to a false discovery rate (FDR) of < 0.05 and |log2FC| = 2.

ABCA3 = assay: LC-MS/MS proteome profiling; format: cell-based, Homo sapiens; details: SK5527 vs DMSO (24h)
Experimental: as §1, §2, §3, §4

JMJD1C = assay: LC-MS/MS proteome profiling; format: cell-based, Homo sapiens; details: SK5527 vs DMSO (24h)
Experimental: as §1, §2, §3, §4

PLCXD1 = assay: LC-MS/MS proteome profiling; format: cell-based, Homo sapiens; details: SK5527 vs DMSO (24h)
Experimental: as §1, §2, §3, §4

TROAP = assay: LC-MS/MS proteome profiling; format: cell-based, Homo sapiens; details: SK5527 vs DMSO
Experimental: as §1, §2, §3, §4

ARHGEF18 = assay: LC-MS/MS proteome profiling; format: cell-based, Homo sapiens; details: SK5527 vs DMSO (24h)
Experimental: as §1, §2, §3, §4

SMTN = assay: LC-MS/MS proteome profiling; format: cell-based, Homo sapiens; details: SK5527 vs DMSO (24h)
Experimental: as §1, §2, §3, §4

SP2 = assay: LC-MS/MS proteome profiling; format: cell-based, Homo sapiens; details: SK5527 vs DMSO (24h)
Experimental: as §1, §2, §3, §4

SRSF10 = assay: LC-MS/MS proteome profiling; format: cell-based, Homo sapiens; details: SK5527 vs DMSO (24h)
Experimental: as §1, §2, §3, §4

HAND2 = assay: LC-MS/MS proteome profiling; format: cell-based, Homo sapiens; details: SK5527 vs DMSO (24h)
Experimental: as §1, §2, §3, §4

RSF1 = assay: LC-MS/MS proteome profiling; format: cell-based, Homo sapiens; details: SK5527 vs DMSO (24h)
Experimental: as §1, §2, §3, §4

ZNF7 = assay: LC-MS/MS proteome profiling; format: cell-based, Homo sapiens; details: SK5527 vs DMSO (24h)
Experimental: as §1, §2, §3, §4

SIPA1L3 = assay: LC-MS/MS proteome profiling; format: cell-based, Homo sapiens; details: SK5527 vs DMSO (24h)
Experimental: as §1, §2, §3, §4

ZSCAN22 = assay: LC-MS/MS proteome profiling; format: cell-based, Homo sapiens; details: SK5527 vs DMSO
Experimental: as §1, §2, §3, §4

403 nonmutant kinases = assay: KINOMEscan scanMAX kinome-wide binding scan, interactions mapped; details: for Interactions mapped: total = 403 non-mutant kinases, threshold < 35% of control
Experimental: (§5) The kinome-wide binding assay was performed by Eurofins Discovery using the scanMAX screening platform. More information can be found on the Eurofins Discovery Web site.

ZNF417 = assay: LC-MS/MS proteome profiling; format: cell-based, Homo sapiens; details: SK5527 vs DMSO (24h)
Experimental: as §1, §2
as §3, with “analysis.” for “analysis. To compare protein abundance”
(§6) Statistical significance for differential regulation was set to a false discovery rate (FDR) of < 0.05 and |log2FC| = 2.

FAM204A = assay: LC-MS/MS proteome profiling; format: cell-based, Homo sapiens; details: SK5527 vs DMSO (24h)
Experimental: as §1, §2
as §3, with “analysis.” for “analysis. To compare protein abundance”
as §6

MTERF3 = assay: LC-MS/MS proteome profiling; format: cell-based, Homo sapiens; details: SK5527 vs DMSO (24h)
Experimental: as §1, §2
as §3, with “analysis.” for “analysis. To compare protein abundance”
as §6

ETV3 = assay: LC-MS/MS proteome profiling; format: cell-based, Homo sapiens; details: SK5527 vs DMSO (24h)
Experimental: as §1, §2
as §3, with “analysis.” for “analysis. To compare protein abundance”
as §6

BAZ2A = assay: LC-MS/MS proteome profiling; format: cell-based, Homo sapiens; details: SK5527 vs DMSO (24h)
Experimental: as §1, §2
as §3, with “analysis.” for “analysis. To compare protein abundance”
as §6

ZNF770 = assay: LC-MS/MS proteome profiling; format: cell-based, Homo sapiens; details: SK5527 vs DMSO (24h)
Experimental: as §1, §2
as §3, with “analysis.” for “analysis. To compare protein abundance”
as §6

ESCO2 = assay: LC-MS/MS proteome profiling; format: cell-based, Homo sapiens; details: SK5527 vs DMSO (24h)
Experimental: as §1, §2
as §3, with “analysis.” for “analysis. To compare protein abundance”
as §6

ZNF286A = assay: LC-MS/MS proteome profiling; format: cell-based, Homo sapiens; details: SK5527 vs DMSO (24h)
Experimental: as §1, §2
as §3, with “analysis.” for “analysis. To compare protein abundance”
as §6

AURKA [2] = molecular target: T1, AURKA; assay: KINOMEscan scanMAX; format: binding; set-up: purchased Eurofins Discovery; details: read-out: Percent Control
Experimental: as §5

O=C1CCC(N2C(=O)c3cccc(OCCOCCOCCOCCNC(=O)[C@]4(Cc5cccc(Nc6nccs6)n5)CC[C@@H](Oc5cccc(Cl)c5F)CC4)c3C2=O)C(=O)N1 (some centres unmarked) [SK2188, reference compound]
AURKA degradation, ABCB1 knockdown compared to wild-type (in words) (AURKA [1]): stronger AURKA degradation

Cc1cc(Nc2ccc(F)c(CC3(C(=O)N4CCC(F)(CN5CCN(c6ccc(N7CCC(=O)NC7=O)cn6)CC5)CC4)CCN(Cc4cccc(Cl)c4F)CC3)n2)n[nH]1 [SK5527]
logFC ZNF337 (ZNF337): 2.22 | logFC ABCA3 (ABCA3): -4.59 | logFC JMJD1C (JMJD1C): 2.49 | logFC PLCXD1 (PLCXD1): -2.06 | logFC TROAP (TROAP): 2.33 | logFC ARHGEF18 (ARHGEF18): -5.19 | logFC SMTN (SMTN): 2.05 | logFC SP2 (SP2): -2.23 | logFC SRSF10 (SRSF10): 2.01 | logFC HAND2 (HAND2): -3.26 | logFC RSF1 (RSF1): 2.45 | logFC ZNF7 (ZNF7): -2.38 | logFC SIPA1L3 (SIPA1L3): -3.26 | logFC ZSCAN22 (ZSCAN22): -2.09 | kinases significantly engaged (in words) (403 nonmutant kinases; 100 nM): only AURKA and TrKA | Interactions mapped (403 nonmutant kinases; 100nM): 2 | nonmutant kinases bound in addition to AURKA, out of 403 (403 nonmutant kinases; 1000 nM): 9 | Interactions mapped (403 nonmutant kinases; 1000nM): 10 | logFC ZNF417 (ZNF417): -2.12 | logFC FAM204A (FAM204A): 2.65 | logFC MTERF3 (MTERF3): -2.09 | logFC ETV3 (ETV3): -2.36 | logFC BAZ2A (BAZ2A): 2.83 | logFC ZNF770 (ZNF770): -4 | logFC ESCO2 (ESCO2): -2.1 | logFC ZNF286A (ZNF286A): -2.95 | remaining binding at 0.1 µM (AURKA [2]; 100 nM): 0.8% | remaining binding at 1 µM (AURKA [2]; 1000 nM): 0%
